Assay results from patent publication US11167040B2, “Conjugates comprising peptide groups and methods related thereto” (priority 2015, dated 2021).
Square brackets hold non-standard residues; d marks the D form. Peptide text beside a SMILES is read from it. Dolaproine = CO[C@@H]([C@@H]1CCCN1)[C@@H](C)C(=O)O; Dil = CC[C@H](C)[C@H](NC)[C@@H](CC(=O)O)OC; NMeV = CN[C@H](C(=O)O)C(C)C

Legend:
[1] = test system: MCF-7 (HER2 negative to normal); experiment: Cytotoxicity of anti-HER2 ADCs, SRB assay; type: cell-based, human; settings: Table 12, hybrid ADCs
Method: (§1) Commercially available human breast cancer cell lines MCF-7 (HER2 negative to normal), OE-19 (HER2 positive), NCI-N87 (HER2 positive), SK-OV-3 (HER2 positive), JIMT-1 (HER2 positive), and SK-BR-3 (HER2 positive) were used. The cell lines were cultured according to recommended specifications provided with the commercially available cell lines.
(§2) Anti-proliferation activities of the antibodies, drugs, and conjugates with regard to the cancer cell lines were measured. The cells were plated in 96-well, tissue culture plates at 1×10^4 cells per well. After 24 hour incubation, the antibodies, drugs, and conjugates were added in various concentrations. The number of viable cells after 72 hours were counted using SRB assay. Absorbance was measured at 540 nm using SpectraMax 190 (Molecular Devices, USA).

[2] = test system: NCI-N87 (HER2 positive); experiment: Cytotoxicity of anti-HER2 ADCs, SRB assay; type: cell-based, human; settings: Table 12, hybrid ADCs
Method: as §1, §2

[3] = test system: SK-OV-3 (HER2 positive); experiment: Cytotoxicity of anti-HER2 ADCs, SRB assay; type: cell-based, human; settings: Table 12, hybrid ADCs
Method: as §1, §2

[4] = test system: A431 cells, which express high levels of EGFR; experiment: Cytotoxicity of Erbitux based ADCs, SRB; type: cell-based; settings: 72 hours; read-out: IC50 against A431 cells
Method: (§3) A431 cells, which express high levels of EGFR, and MCF-7 cells, which express low levels of EGFR, were plated at about 1000 cells per well in a 96-well plate in 100 μL of media. HCC-827 cells, which express an intermediate level of EGFR were plated at about 5000 cells per well in a 96-well plate in 100 μL of media. […] The cells were incubated for 72 hours and then fixed for 1 hour at 4° C. after adding 100 μL of ice-cold 10% trichloroacetic acid to each well.

[5] = test system: HCC-827 cells, which express an intermediate level of EGFR; experiment: Cytotoxicity of Erbitux based ADCs, SRB; type: cell-based; settings: 72 hours; read-out: IC50 against HCC-827 cells
Method: as §3

[6] = test system: MCF-7 cells, which express low levels of EGFR; experiment: Cytotoxicity of Erbitux based ADCs, SRB; type: cell-based; settings: 72 hours; read-out: IC50 against MCF-7 cells
Method: as §3

[7] = test system: SK-BR3 cells; experiment: Plasma stability of ADCs: human plasma incubation, then SRB cytotoxicity test; type: cell-based; settings: Table 18; human plasma 0 h; SK-BR3 cells 72 hr; read-out: Plasma stability of Herceptin based ADCs (nM), Plasma incubation time 0 h

With `CC[C@H](C)[C@@H]([C@@H](CC(=O)N1CCC[C@H]1[C@H](OC)[C@@H](C)C(=O)N[C@@H](Cc1ccccc1)C(=O)OC)OC)N(C)C(=O)[C@@H](NC(=O)[C@@H](NC)C(C)C)C(C)C` [MMAF-OMe, monomethyl auristatin F methyl ester] (H-[NMeV]V[Dil][Dolaproine]F-OMe) the IC50 [1] was 0.6 nM, the IC50 [2] was 0.49 nM and the IC50 [3] was 0.78 nM. For the same compound, the IC50 [4] was 1.11 nM, the IC50 [5] was 1.99 nM and the IC50 [6] was 1.81 nM. For the same compound, the IC50 [7] was 0.48 nM.
